Reference: US20180186769A1, “6-AMINO-5-FLUORO-5-(FLUOROMETHYL)-2,3,4,5-TETRAHYDROPYRIDIN-2-YL-PHENYL-5-(METHOXY-D3)-PYRAZINE-2-CARBOXAMIDES AND FLUORINATED DERIVATIVES THEREOF AS BACE1 INHIBITORS” (H. Lundbeck A/S, priority 2016, published 2018)
Where two headings read alike, the source gives them in different places.

Assay: Bioanalysis of brain and plasma samples (UPLC-MS/MS)
Assay type: in vivo, Sprague Dawley rats
Conditions: male, po, rat, p.o.; for Kp at 0.5 h / Kp at 1 h / Kp at 3 h / Kp at 6 h / Kp at 12 h: read-out: Brain/Plasma ratio
Protocol: Young adult Male Sprague Dawley rats of approximately 250 g weight were purchased from Charles River and received vehicle (2.5% HP betaCD+1M MeSO4, pH 2.5) or 0-40 mg/kg of test compounds (dissolved in vehicle) by oral gavage (p.o). The compounds are dosed at a volume of 5 ml/kg. Cohorts of 5-10 animals were established for each treatment condition.
Studies were set up as acute dose response treatment studies were samples were taken at T=180 minutes after initial dosing, or as 12 h or 24 h timecourse treatment studies. At the end of the test period, the animals were stunned and decapitated with a guillotine. Trunk-blood was sampled in EDTA coated tubes after decapitation of the animal. The blood was centrifuged at 2200G at 4° C. for 15 minutes and the plasma was collected and frozen at −80° C. The blood was aliquoted for Aβ ELISA and DMPK analysis. Immediately following sacrifice, the brain was extracted and split into 2 halves. The left half was dissected; with the front forebrain taken for Aβ ELISA and the remainder used for DMPK analysis. These samples were also snap frozen on dry ice and stored at −80° C. until use for analysis. The right hemibrains were snap frozen on dry ice and stored at −80° C. for independent confirmatory Aβ ELISA evalution.
TC was determined in plasma and brain homogenate using UltraPerformance LC® (UPLC®) chromatography followed by tandem-MS (MS/MS) detection.
Brain homogenate was prepared by homogenizing the brain 1:4 (v/v) with water:2-propanol:DMSO (50:30:20 v/v/v) followed by centrifugation and collection of the supernatant. Calibration standards and QC samples were prepared using a Hamilton robot. 150 μL of ISTD in acetonitrile (1 ng/mL ISTD) was added to 25 μL of calibration standards, QC samples and test samples (plasma and brain homogenate) using a Biomek robot. After centrifugation (6200 g, 4° C., 20 min) 100 μL supernatant from each sample was transferred to a new plate and mixed with 100 μL water with 0.1% formic acid using a Biomek robot (method file InVivo transfer). After a quick centrifugation (6200 g, 4° C., 5 min) the samples were placed in the auto-sampler.
MS/MS detection was done with an Applied Biosystems Sciex API 4000 instrument in positive-ion electrospray ionisation mode. TC and ISTD were detected at a parent>daughter mass to charge ratio (m/z). Nitrogen was used for the nebulizer and collision gases. The peak area correlated linearly with the plasma and brain concentration of the analytes in the range of 1.00-1000 ng/mL plasma and 5.00-5000 ng/g brain (corrected for dilution). If the plasma/brain sample drug concentration was above 1000 ng/mL or 5000 ng/g, the sample was diluted appropriately in blank plasma/blank brain homogenate before analysis.

[1] = Sprague Dawley, brain and plasma, 10 mg/kg
[2] = Sprague Dawley, brain, 10 mg/kg, read-out: Mean rat brain conc.
[3] = Sprague Dawley, plasma, 10 mg/kg, read-out: Mean rat plasma conc.
[4] = Sprague-Dawley, brain, 20 mg/kg, read-out: Mean rat brain conc.
[5] = Sprague-Dawley, brain, 40 mg/kg, read-out: Mean rat brain conc.
[6] = Sprague-Dawley, brain/plasma, 20 mg/kg
[7] = Sprague-Dawley, brain/plasma, 40 mg/kg
[8] = Sprague-Dawley, plasma, 20 mg/kg, read-out: Mean rat plasma conc.
[9] = Sprague-Dawley, plasma, 40 mg/kg, read-out: Mean rat plasma conc.

[2H]C([2H])([2H])Oc1cnc(C(=O)Nc2ccc(F)c([C@]3(C)CC[C@@](F)(CF)C(N)=N3)c2)cn1 [Example 1, N-(3-((2S,5S)-6-amino-5-fluoro-5-(fluoromethyl)-2-methyl-2,3,4,5-tetrahydropyridin-2-yl)-4-fluorophenyl)-5-(methoxy-d3)pyrazine-2-carboxamide]
Kp at 0.5 h [1]: 1.8
Kp at 1 h [1]: 2.3
Kp at 3 h [1]: 2.1
Kp at 6 h [1]: 1.9
Kp at 12 h [1]: 1.7
concentration at 0.5 h [2]: 550 ng/g
concentration at 1 h [2]: 1100 ng/g
concentration at 3 h [2]: 700 ng/g
concentration at 6 h [2]: 430 ng/g
concentration at 12 h [2]: 140 ng/g
concentration at 0.5 h [3]: 300 ng/mL
concentration at 1 h [3]: 500 ng/mL
concentration at 3 h [3]: 340 ng/mL
concentration at 6 h [3]: 230 ng/mL
concentration at 12 h [3]: 79 ng/mL
concentration at 0.5 h [4]: 1530 ng/g
concentration at 1 h [4]: 2380 ng/g
concentration at 3 h [4]: 1960 ng/g
concentration at 6 h [4]: 1540 ng/g
concentration at 12 h [4]: 438 ng/g
concentration at 0.5 h [5]: 2500 ng/g
concentration at 1 h [5]: 2800 ng/g
concentration at 3 h [5]: 3000 ng/g
concentration at 6 h [5]: 3700 ng/g
concentration at 12 h [5]: 1100 ng/g
Kp at 0.5 h [6]: 2.9
Kp at 1 h [6]: 3.9
Kp at 3 h [6]: 3.4
Kp at 6 h [6]: 3.2
Kp at 12 h [6]: 2.7
Kp at 0.5 h [7]: 2.8
Kp at 1 h [7]: 3.1
Kp at 3 h [7]: 2.8
Kp at 6 h [7]: 3
Kp at 12 h [7]: 2.5
concentration at 0.5 h [8]: 532 ng/mL
concentration at 1 h [8]: 614 ng/mL
concentration at 3 h [8]: 572 ng/mL
concentration at 6 h [8]: 477 ng/mL
concentration at 12 h [8]: 159 ng/mL
concentration at 0.5 h [9]: 740 ng/mL
concentration at 1 h [9]: 880 ng/mL
concentration at 3 h [9]: 1100 ng/mL
concentration at 6 h [9]: 1200 ng/mL
concentration at 12 h [9]: 410 ng/mL
